Assay results: patent US7781199B2, “Identification of a JAK2 mutation involved in Vaquez Polyglobulia” (priority 2004, dated 2010)
Entries after “also recorded” stand apart in the source; their conditions may differ.

How the values were obtained:
V617F JAK2 = experiment: Expression of V617F JAK2 in HEL cells after siRNA treatment; assay type: cell-based, human; conditions: 24 hours after treatment (FIGS. 8 and 9)
Method: FIGS. 8 and 9: Expression of V617F Jak2 in HEL cells is reduced 24 hours after treatment with siRNA specific to JAK2 V617F Jak2 (siRNA #1, 3 and 4).
Lanes 0 to 6: HEL cells treated (1 to 6) or non-treated (0) with siRNA V617F Jak2.
Lane C+: 293HEK cells transfected with the V617F Jak2RV vector
(§1) The results are shown FIGS. 8, 9 and 10.

wild-type JAK2 = experiment: Expression of wild-type JAK2 in K562 cells after siRNA treatment; assay type: cell-based, human; conditions: 24 hours after treatment (FIG. 10)
Method: FIG. 10: Level of WT Jak2 expression in K562 cells remains unchanged 24 hours after treatment with siRNA specific to Jak2 V617.
Lane Je: K562 cells treated with siRNA WT Jak2
Lanes 0 to 6: K562 cells treated with siRNA V617F Jak2
Lane C−: 293HEK (no expression of JAK2).
as §1

Substance | expression of V617F Jak2 protein (V617F JAK2) | level of WT Jak2 expression (wild-type JAK2)
siRNA 4: siRNA specific to the V617F JAK2 mutation; said to correspond to SEQ ID No 27 (probably No 31, GAGUAUGUUUCUGUGGAGA) (listed as RNA, chemistry not given here) | reduced; also recorded: inhibit | without inhibiting
siRNA 1: siRNA specific to the V617F JAK2 mutation; said to correspond to SEQ ID No 25 (probably No 29, UGGAGUAUGUUUCUGUGGA) (listed as RNA, chemistry not given here) | reduced; also recorded: inhibit | without inhibiting
siRNA 3: siRNA specific to the V617F JAK2 mutation; said to correspond to SEQ ID No 26 (probably No 30, GGAGUAUGUUUCUGUGGAG) (listed as RNA, chemistry not given here) | reduced; also recorded: inhibit | without inhibiting
